Holding throughout (type): functional
Assay [1] can be described thus: (§1) Inhibition of neuronal excitability in C57BL/6 mouse Neocortical neurons assessed as reduction in spontaneous calcium oscillation amplitude measured for 10 mins by Fluo-4 staining based FLIPR assay. The note with it: C57BL/6, 10 min.
Assay [2] is filed under the species Mus musculus. Described as §1.
Assay [3] can be described thus: (§2) Inhibition of neuronal excitability in C57BL/6 mouse Neocortical neurons assessed as effect on spontaneous calcium oscillation frequency measured for 10 mins by Fluo-4 staining based FLIPR assay. The settings on record: C57BL/6, 10 min.
For assay [4], the species on record is Mus musculus. The assay is described as §2.

Take `CCO[C@@H]1O[C@@H]([C@@H]2c3cc4c(cc3CCN2C)OCO4)c2ccc3c(c21)OCO3`: the 50% inhibitory concentration (IC50) in assay [1] and in assay [3] was 3.1 µM each time. In addition, the inhibition result in assay [2] and in assay [4] was “Dose-dependent effect” each time.

With `CO[C@@H]1O[C@@H]([C@@H]2c3cc4c(cc3CCN2C)OCO4)c2ccc3c(c21)OCO3`, the IC50 in assay [1] and in assay [3] was 5.6 µM each time. For the same molecule, the inhibition result in assay [2] and in assay [4] was “Dose-dependent effect” throughout.

`CCO[C@@H]1O[C@@H]([C@@H]2c3cc(OC)c(OC)cc3CCN2C)c2ccc3c(c21)OCO3`: the concentration for half-maximal inhibition (IC50) in assay [1] and in assay [3] was 10.2 µM each time. The inhibition result in assay [2] and in assay [4] was “Dose-dependent effect” in each case.

For `CO[C@H]1O[C@@H]([C@@H]2c3cc4c(cc3CCN2C)OCO4)c2ccc3c(c21)OCO3`, the IC50 in assay [1] and in assay [3] was 6.8 µM throughout. In addition, the inhibition result in assay [2] and in assay [4] was “Dose-dependent effect” throughout.

For the molecule `CCO[C@H]1O[C@@H]([C@@H]2c3cc4c(cc3CCN2C)OCO4)c2ccc3c(c21)OCO3`, the IC50 in assay [1] and in assay [3] was 8.3 µM throughout. Further, the inhibition result in assay [2] and in assay [4] was “Dose-dependent effect” in each case.

For `COc1cc2c(cc1OC)[C@@H]([C@@H]1O[C@H](O)c3c1ccc1c3OCO1)N(C)CC2`, the IC50 in assay [1] and in assay [3] was 11.6 µM each time. Besides, the inhibition entry in assay [2] and in assay [4] was “Dose-dependent effect” in each case.

The values are drawn from ChEMBL document CHEMBL4414614, “Phthalideisoquinoline Hemiacetal Alkaloids from Corydalis decumbens That Inhibit Spontaneous Calcium Oscillations, Including Alkyl Derivatives of (+)-Egenine That Are Strikingly Levorotatory” (J Nat Prod, 2019).
